Where two headings read alike, the source gives them in different places. Positions of bridges follow the written chain, without caps; N, C: chain ends. Residues, ends and D or L forms follow the SMILES beside them.
Key:
[1] = target: hNav1.5 (Homo sapiens, UniProt Q14524); assay: cell-based
[2] = target: hNav1.3 (Homo sapiens, UniProt Q9NY46); assay: cell-based; settings: IonWorks Quattro, read-out: IWQ Use Nav1.3
[3] = IonWorks Quattro, Use, read-out: IWQ Use Nav1.5

Sequence of hNav1.5 (Q14524 whole entry, looked up): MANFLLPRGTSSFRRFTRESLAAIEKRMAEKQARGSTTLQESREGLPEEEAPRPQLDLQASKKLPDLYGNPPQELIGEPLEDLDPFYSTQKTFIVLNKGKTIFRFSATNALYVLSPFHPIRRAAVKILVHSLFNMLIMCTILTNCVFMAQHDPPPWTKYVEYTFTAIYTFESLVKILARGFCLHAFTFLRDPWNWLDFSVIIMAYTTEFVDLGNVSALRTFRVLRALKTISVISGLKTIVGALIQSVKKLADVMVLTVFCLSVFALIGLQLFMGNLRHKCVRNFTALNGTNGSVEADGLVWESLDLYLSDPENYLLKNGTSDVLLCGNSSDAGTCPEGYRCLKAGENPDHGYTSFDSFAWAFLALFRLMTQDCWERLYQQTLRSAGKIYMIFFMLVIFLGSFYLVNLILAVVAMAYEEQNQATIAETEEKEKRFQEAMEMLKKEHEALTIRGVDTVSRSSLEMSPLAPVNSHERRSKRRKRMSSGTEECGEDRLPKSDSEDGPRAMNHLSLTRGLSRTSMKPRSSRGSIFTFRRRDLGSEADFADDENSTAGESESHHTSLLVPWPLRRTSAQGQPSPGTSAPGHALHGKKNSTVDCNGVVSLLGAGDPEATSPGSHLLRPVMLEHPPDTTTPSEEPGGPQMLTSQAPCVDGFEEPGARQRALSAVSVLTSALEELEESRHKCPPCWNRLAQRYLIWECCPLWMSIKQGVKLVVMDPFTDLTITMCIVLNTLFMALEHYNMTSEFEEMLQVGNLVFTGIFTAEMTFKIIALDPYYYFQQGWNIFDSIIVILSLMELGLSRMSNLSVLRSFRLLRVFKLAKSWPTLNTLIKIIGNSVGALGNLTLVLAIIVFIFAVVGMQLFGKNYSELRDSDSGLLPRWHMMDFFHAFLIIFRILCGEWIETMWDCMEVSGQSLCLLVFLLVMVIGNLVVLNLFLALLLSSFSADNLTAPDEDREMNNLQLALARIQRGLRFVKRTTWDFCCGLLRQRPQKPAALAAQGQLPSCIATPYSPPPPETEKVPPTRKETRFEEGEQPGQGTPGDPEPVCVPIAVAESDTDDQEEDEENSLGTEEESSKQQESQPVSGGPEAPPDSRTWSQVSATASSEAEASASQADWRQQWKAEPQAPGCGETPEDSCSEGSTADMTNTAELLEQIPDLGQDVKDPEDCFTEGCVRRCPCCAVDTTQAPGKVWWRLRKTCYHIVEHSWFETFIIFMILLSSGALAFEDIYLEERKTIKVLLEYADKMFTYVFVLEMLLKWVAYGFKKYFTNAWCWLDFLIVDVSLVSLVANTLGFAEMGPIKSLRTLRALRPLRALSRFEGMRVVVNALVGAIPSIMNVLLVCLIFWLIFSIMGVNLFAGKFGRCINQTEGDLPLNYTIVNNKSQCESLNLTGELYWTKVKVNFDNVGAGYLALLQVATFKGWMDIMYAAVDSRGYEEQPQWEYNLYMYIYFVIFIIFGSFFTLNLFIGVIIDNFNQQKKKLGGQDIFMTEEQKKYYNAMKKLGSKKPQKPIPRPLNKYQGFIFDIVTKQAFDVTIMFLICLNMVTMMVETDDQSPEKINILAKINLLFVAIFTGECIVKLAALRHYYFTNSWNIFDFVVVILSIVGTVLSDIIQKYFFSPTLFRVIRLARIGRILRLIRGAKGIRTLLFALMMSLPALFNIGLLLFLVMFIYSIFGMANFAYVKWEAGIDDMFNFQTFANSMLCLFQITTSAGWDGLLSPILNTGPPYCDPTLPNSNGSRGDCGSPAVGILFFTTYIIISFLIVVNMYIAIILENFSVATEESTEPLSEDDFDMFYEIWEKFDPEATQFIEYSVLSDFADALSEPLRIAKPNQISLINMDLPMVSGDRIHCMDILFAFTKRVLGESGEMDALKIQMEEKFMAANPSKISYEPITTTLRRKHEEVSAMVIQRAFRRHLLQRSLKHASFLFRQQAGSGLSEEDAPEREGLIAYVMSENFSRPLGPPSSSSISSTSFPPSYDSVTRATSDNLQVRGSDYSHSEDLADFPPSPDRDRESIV
Sequence of hNav1.3 (Q9NY46 whole entry, looked up): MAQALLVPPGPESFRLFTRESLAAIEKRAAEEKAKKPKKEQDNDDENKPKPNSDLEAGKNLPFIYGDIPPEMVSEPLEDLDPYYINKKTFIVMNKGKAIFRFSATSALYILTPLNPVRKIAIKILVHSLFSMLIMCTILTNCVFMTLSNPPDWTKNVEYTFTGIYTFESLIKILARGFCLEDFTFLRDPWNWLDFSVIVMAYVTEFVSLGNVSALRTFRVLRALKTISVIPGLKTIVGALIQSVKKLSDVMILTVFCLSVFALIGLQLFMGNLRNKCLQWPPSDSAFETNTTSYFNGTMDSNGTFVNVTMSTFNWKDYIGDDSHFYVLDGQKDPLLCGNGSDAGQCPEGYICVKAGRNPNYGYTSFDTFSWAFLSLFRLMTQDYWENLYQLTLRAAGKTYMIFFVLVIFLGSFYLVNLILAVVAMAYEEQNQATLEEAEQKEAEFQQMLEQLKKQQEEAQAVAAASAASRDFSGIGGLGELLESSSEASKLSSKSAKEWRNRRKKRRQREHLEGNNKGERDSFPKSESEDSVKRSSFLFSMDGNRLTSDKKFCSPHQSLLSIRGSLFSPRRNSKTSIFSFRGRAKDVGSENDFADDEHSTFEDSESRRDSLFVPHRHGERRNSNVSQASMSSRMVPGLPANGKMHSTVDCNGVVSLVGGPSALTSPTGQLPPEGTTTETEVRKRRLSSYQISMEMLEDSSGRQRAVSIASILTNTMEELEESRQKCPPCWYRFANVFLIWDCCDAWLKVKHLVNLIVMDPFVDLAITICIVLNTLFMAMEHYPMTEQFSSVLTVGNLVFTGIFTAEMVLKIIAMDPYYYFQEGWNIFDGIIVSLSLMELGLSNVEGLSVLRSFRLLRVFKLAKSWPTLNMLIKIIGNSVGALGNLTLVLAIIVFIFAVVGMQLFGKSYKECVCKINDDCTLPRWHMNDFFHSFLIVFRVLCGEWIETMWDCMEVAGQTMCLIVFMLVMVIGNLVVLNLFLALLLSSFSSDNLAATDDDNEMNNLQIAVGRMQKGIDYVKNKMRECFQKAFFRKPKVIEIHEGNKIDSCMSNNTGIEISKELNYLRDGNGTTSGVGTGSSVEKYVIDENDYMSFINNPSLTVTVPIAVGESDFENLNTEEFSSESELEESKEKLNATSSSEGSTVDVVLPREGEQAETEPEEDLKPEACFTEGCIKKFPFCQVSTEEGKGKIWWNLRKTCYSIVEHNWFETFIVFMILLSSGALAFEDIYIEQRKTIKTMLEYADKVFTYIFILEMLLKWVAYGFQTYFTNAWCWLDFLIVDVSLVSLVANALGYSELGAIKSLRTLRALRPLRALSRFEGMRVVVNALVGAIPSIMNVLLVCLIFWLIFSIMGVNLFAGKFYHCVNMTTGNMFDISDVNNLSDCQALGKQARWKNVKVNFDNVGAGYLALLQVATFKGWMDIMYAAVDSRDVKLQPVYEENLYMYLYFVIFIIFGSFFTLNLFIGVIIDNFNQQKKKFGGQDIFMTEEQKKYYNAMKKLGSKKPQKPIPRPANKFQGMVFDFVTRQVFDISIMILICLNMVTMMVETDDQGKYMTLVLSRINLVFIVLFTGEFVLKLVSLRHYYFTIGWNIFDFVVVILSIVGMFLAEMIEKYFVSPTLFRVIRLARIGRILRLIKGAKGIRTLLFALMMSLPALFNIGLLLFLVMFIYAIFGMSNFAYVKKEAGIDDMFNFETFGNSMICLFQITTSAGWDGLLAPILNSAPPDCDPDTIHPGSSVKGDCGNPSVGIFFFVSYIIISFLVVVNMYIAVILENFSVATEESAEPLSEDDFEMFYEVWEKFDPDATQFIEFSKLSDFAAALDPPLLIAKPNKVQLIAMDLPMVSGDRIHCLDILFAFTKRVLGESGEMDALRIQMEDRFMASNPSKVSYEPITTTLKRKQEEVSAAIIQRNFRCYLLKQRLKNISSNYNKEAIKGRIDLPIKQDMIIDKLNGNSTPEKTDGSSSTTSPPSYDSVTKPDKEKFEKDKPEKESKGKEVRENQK

Row | SMILES | IC50 ([2]; Use) | IC50 [1, 3] | further results
1 | CC[C@H](C)[C@@H]1NC(=O)[C@@H]2CSSC[C@@H]3NC(=O)[C@H](CCCNC(=N)N)NC(=O)[C@H](CC(C)C)NC(=O)[C@H](CC(N)=O)NC(=O)[C@@H]4CCCN4C(=O)[C@H](CCCNC(=N)N)NC(=O)[C@H](CSSC[C@H](NC(=O)[C@@H](N)CC(=O)O)C(=O)N[C@@H](CC(C)C)C(=O)NCC(=O)N[C@@H](Cc4ccccc4)C(=O)N[C@@H](CCSC)C(=O)N[C@@H](CCCNC(=N)N)C(=O)N[C@@H](CCCCN)C(=O)N2)NC(=O)[C@H](CSSC[C@@H](C(=O)N[C@@H](CCCCN)C(=O)N[C@@H](Cc2ccc(O)cc2)C(=O)N[C@H](C(=O)N[C@@H](Cc2ccccc2)C(N)=O)C(C)C)NC(=O)[C@H](Cc2c[nH]c4ccccc24)NC(=O)[C@H](CCCCN)NC(=O)[C@H](Cc2cnc[nH]2)NC(=O)[C@H]([C@@H](C)O)NC(=O)[C@H](CCCNC(=N)N)NC(=O)[C@H](CO)NC3=O)NC(=O)[C@H](CCCCN)NC(=O)[C@H](CC(=O)O)NC(=O)[C@H](CC(N)=O)NC(=O)[C@H](CC(=O)O)NC(=O)[C@@H]2CCCN2C1=O [compound 158] (H-DCLGFMRKCIPDNDKCCRPNLRCSRTHKWCKYVF-NH2; disulfide 2-17, 9-23, 16-30) | 0.03 µM |  | IC50 ([1]; IWQ Use Nav1.5 (μM)): 8.2 µM
2 | CSCC[C@@H]1NC(=O)[C@H](Cc2ccccc2)NC(=O)CNC(=O)[C@H](CC(C)C)NC(=O)[C@@H](NC(=O)[C@@H](N)CC(=O)O)CSSC[C@@H]2NC(=O)[C@@H]3CSSC[C@@H](C(=O)N[C@@H](CCCCN)C(=O)N[C@@H](Cc4ccc(O)cc4)C(=O)N[C@H](C(=O)N[C@@H](Cc4ccccc4)C(N)=O)C(C)C)NC(=O)[C@H](Cc4c[nH]c5ccccc45)NC(=O)[C@H](CCCCN)NC(=O)[C@H](Cc4cnc[nH]4)NC(=O)[C@H]([C@@H](C)O)NC(=O)[C@H](CCCNC(=N)N)NC(=O)[C@H](CO)NC(=O)[C@H](CSSC[C@H](NC(=O)[C@H](CCCCN)NC(=O)[C@H](CCCNC(=N)N)NC1=O)C(=O)N[C@@H](Cc1cnc[nH]1)C(=O)N1CCC[C@H]1C(=O)N[C@@H](CC(=O)O)C(=O)N[C@@H](CC(N)=O)C(=O)N[C@@H](CC(=O)O)C(=O)N[C@@H](CCCCN)C(=O)N3)NC(=O)[C@H](C(C)C)NC(=O)[C@H](CC(C)C)NC(=O)[C@H](CC(N)=O)NC(=O)[C@@H]1CCCN1C(=O)[C@H](CCCNC(=N)N)NC2=O [compound 304] (H-DCLGFMRKCHPDNDKCCRPNLVCSRTHKWCKYVF-NH2; disulfide 2-17, 9-23, 16-30) | 0.03 µM | 6.36 µM | 
3 | CC[C@H](C)[C@@H]1NC(=O)[C@@H]2CSSC[C@@H]3NC(=O)[C@H](C(C)C)NC(=O)[C@H](CC(C)C)NC(=O)[C@H](CC(N)=O)NC(=O)[C@H](CCCCN)NC(=O)[C@H](CCCNC(=N)N)NC(=O)[C@H](CSSC[C@H](NC(=O)[C@@H](N)CC(=O)O)C(=O)N[C@@H](CC(C)C)C(=O)NCC(=O)N[C@@H](Cc4ccccc4)C(=O)N[C@@H](CCSC)C(=O)N[C@@H](CCCNC(=N)N)C(=O)N[C@@H](CCCCN)C(=O)N2)NC(=O)[C@H](CSSC[C@@H](C(=O)N[C@@H](CCCCN)C(=O)N[C@@H](Cc2ccc(O)cc2)C(=O)N[C@H](C(=O)N[C@@H](Cc2ccccc2)C(N)=O)C(C)C)NC(=O)[C@H](Cc2c[nH]c4ccccc24)NC(=O)[C@H](CCCCN)NC(=O)[C@H](Cc2cnc[nH]2)NC(=O)[C@H]([C@@H](C)O)NC(=O)[C@H](CCCNC(=N)N)NC(=O)[C@H](CO)NC3=O)NC(=O)[C@H](CCCCN)NC(=O)[C@H](CC(=O)O)NC(=O)[C@H](CC(N)=O)NC(=O)[C@H](CC(=O)O)NC(=O)[C@@H]2CCCN2C1=O [compound 50] (H-DCLGFMRKCIPDNDKCCRKNLVCSRTHKWCKYVF-NH2; disulfide 2-17, 9-23, 16-30) | 0.18 µM | 10.6 µM | 
4 | CC[C@H](C)[C@@H]1NC(=O)[C@@H]2CSSC[C@@H]3NC(=O)[C@H](C(C)C)NC(=O)[C@H](CC(C)C)NC(=O)[C@H](CC(N)=O)NC(=O)[C@@H]4CCCN4C(=O)[C@H](CCCNC(=N)N)NC(=O)[C@H](CSSC[C@H](NC(=O)[C@@H](N)CC(=O)O)C(=O)N[C@@H](CCCNC(=N)N)C(=O)NCC(=O)N[C@@H](Cc4ccccc4)C(=O)N[C@@H](CCSC)C(=O)N[C@@H](CCCNC(=N)N)C(=O)N[C@@H](CCCCN)C(=O)N2)NC(=O)[C@H](CSSC[C@@H](C(=O)N[C@@H](CCCCN)C(=O)N[C@@H](Cc2ccc(O)cc2)C(=O)N[C@H](C(=O)N[C@@H](Cc2ccccc2)C(N)=O)C(C)C)NC(=O)[C@H](Cc2c[nH]c4ccccc24)NC(=O)[C@H](CCCCN)NC(=O)[C@H](Cc2cnc[nH]2)NC(=O)[C@H]([C@@H](C)O)NC(=O)[C@H](CCCNC(=N)N)NC(=O)[C@H](CO)NC3=O)NC(=O)[C@H](CCCCN)NC(=O)[C@H](CC(=O)O)NC(=O)[C@H](CC(N)=O)NC(=O)[C@H](CC(=O)O)NC(=O)[C@@H]2CCCN2C1=O [SEQ ID NO: 155] (H-DCRGFMRKCIPDNDKCCRPNLVCSRTHKWCKYVF-NH2; disulfide 2-17, 9-23, 16-30) |  |  | IC50 ([1]; IonWorks Quattro, clamped to −110 mV, depolarized to −10 mV, 5 min after compound, n=2, read-out: IWQ Use Nav1.5): 8.45 µM; IC50 ([2]; clamped to −110 mV, depolarized to −10 mV, 5 min after compound, n=2): 0.05 µM
5 | CC[C@H](C)[C@@H]1NC(=O)[C@@H]2CSSC[C@@H]3NC(=O)[C@H](C(C)C)NC(=O)[C@H](CC(C)C)NC(=O)[C@H](CC(N)=O)NC(=O)[C@@H]4CCCN4C(=O)[C@H](CCCNC(=N)N)NC(=O)[C@H](CSSC[C@H](NC(=O)[C@@H](N)CC(=O)O)C(=O)N[C@@H](CC(C)C)C(=O)NCC(=O)N[C@@H](Cc4ccccc4)C(=O)N[C@@H](CCSC)C(=O)N[C@@H](CCCNC(=N)N)C(=O)N[C@@H](CCCCN)C(=O)N2)NC(=O)[C@H](CSSC[C@@H](C(=O)N[C@@H](CCCCN)C(=O)N[C@@H](C)C(=O)N[C@H](C(=O)N[C@@H](Cc2ccccc2)C(N)=O)C(C)C)NC(=O)[C@H](Cc2c[nH]c4ccccc24)NC(=O)[C@H](CCCCN)NC(=O)[C@H](Cc2cnc[nH]2)NC(=O)[C@H]([C@@H](C)O)NC(=O)[C@H](CCCNC(=N)N)NC(=O)[C@H](CO)NC3=O)NC(=O)[C@H](CCCCN)NC(=O)[C@H](CC(=O)O)NC(=O)[C@H](CC(N)=O)NC(=O)[C@H](CC(=O)O)NC(=O)[C@@H]2CCCN2C1=O [compound 14] (H-DCLGFMRKCIPDNDKCCRPNLVCSRTHKWCKAVF-NH2; disulfide 2-17, 9-23, 16-30) |  |  | IC50 ([1]; Table 25, IonWorks Quattro, use, […], read-out: IWQ Use Nav1.5): 20.6 µM; IC50 ([2]; Table 25, use, […]): 0.77 µM
6 | CC[C@H](C)[C@@H]1NC(=O)[C@@H]2CSSC[C@@H]3NC(=O)[C@H](C(C)C)NC(=O)[C@H](CC(C)C)NC(=O)[C@H](CCCNC(=N)N)NC(=O)[C@@H]4CCCN4C(=O)[C@H](CCCNC(=N)N)NC(=O)[C@H](CSSC[C@H](NC(=O)[C@@H](N)CC(=O)O)C(=O)N[C@@H](CC(C)C)C(=O)NCC(=O)N[C@@H](Cc4ccccc4)C(=O)N[C@@H](CCSC)C(=O)N[C@@H](CCCNC(=N)N)C(=O)N[C@@H](CCCCN)C(=O)N2)NC(=O)[C@H](CSSC[C@@H](C(=O)N[C@@H](CCCCN)C(=O)N[C@@H](Cc2ccc(O)cc2)C(=O)N[C@H](C(=O)N[C@@H](Cc2ccccc2)C(N)=O)C(C)C)NC(=O)[C@H](Cc2c[nH]c4ccccc24)NC(=O)[C@H](CCCCN)NC(=O)[C@H](Cc2cnc[nH]2)NC(=O)[C@H]([C@@H](C)O)NC(=O)[C@H](CCCNC(=N)N)NC(=O)[C@H](CO)NC3=O)NC(=O)[C@H](CCCCN)NC(=O)[C@H](CC(=O)O)NC(=O)[C@H](CC(N)=O)NC(=O)[C@H](CC(=O)O)NC(=O)[C@@H]2CCCN2C1=O [compound 69] (H-DCLGFMRKCIPDNDKCCRPRLVCSRTHKWCKYVF-NH2; disulfide 2-17, 9-23, 16-30) | 0.08 µM | 14.9 µM | 

Reference: patent US9340590B2 (priority 2011, dated 2016)
